What all share (type): in vivo
The test system of series [1] is Broadleaf Dock Rumex obtusifolia. As to the kind of experiment: Post-emergence greenhouse herbicide evaluation, broadleaf dock. Conditions: 560 g ae/ha, 14 days after application, visual injury 0-100% vs untreated. The source says:
(§1) Post-Emergence Application Methods for Herbicide Evaluations.
(§2) A peat based potting soil, Metro-mix 360, was used as the soil media for this test. Metro-mix is a growing medium consisting of 35 to 45% specially processed Coconut Coir Pith, 10 to 20% horticultural grade vermiculite, 15 to 25% processed Ash Bark, 20 to 30% choice Canadian Sphagnum Peat Moss and proprietary nutrients and other ingredients. Several seeds of each species were planted in 10 cm square pots and top watered twice daily. Plant material was propagated in the greenhouse at a constant temperature of 26 to 28° C. and 50 to 60% relative humidity. Natural light was supplemented with 1000-watt metal halide overhead lamps with an average illumination of 500 μE m^−2 s^−1 photosynthetic active radiation (PAR). Day length was 16 hours. Plant material was top-watered prior to treatment and sub-irrigated after treatment. Treatments were applied with a tracksprayer manufactured by Allen Machine Works. The sprayer utilized an 8003E spray nozzle, spray pressure of 262 kPa pressure and speed of 2.8 mph (4.5 km/h) to deliver 187 L/Ha. The nozzle height was 46 cm above the plant canopy. The growth stage of the various weed species ranged from 2 to 4 leaf. Treatments were replicated 3 times. Plants were returned to the greenhouse after treatment and sub-watered throughout the duration of the experiment. Plant material was fertilized twice weekly with Hoagland's fertilizer solution. Percent visual injury assessments were made on a scale of 0 to 100% as compared to the untreated control plants (where 0 is equal to no injury and 100 is equal to complete death of the plant).

For a further series, the system named is Kochia Kochia scoparia. As to the kind of experiment: Post-emergence greenhouse herbicide evaluation, kochia. The following applies: 560 g ae/ha, 14 days after application, visual injury 0-100% vs untreated.
Excerpt: as §1, §2

Series [2] deals with Barnyardgrass Echinochloa crus-galli. The series can be described thus: Post-emergence greenhouse herbicide evaluation, barnyardgrass. The following applies: 240 g ae/ha, 14 days after application, visual injury 0-100% vs untreated.
Excerpt: as §1, §2

The test system of series [3] is Large Crabgrass Digitaria Sanguinalis. The series can be described thus: Post-emergence greenhouse herbicide evaluation, large crabgrass. Conditions: 240 g ae/ha, 14 days after application, visual injury 0-100% vs untreated.
Excerpt: as §1, §2

In series [4] the test system is grapes (Vitis labrusca L.). As to the kind of experiment: Volatility evaluation: injury to grapes from vapor exposure to treated wheat. The following applies: wheat sprayed at 11200 g ae/ha, 24 hour vapor exposure at 40° C., evaluated 7 days after exposure. From the text:
Methods for Evaluating the Volatility of 2,4-D Standards and Ionic Liquids of 2,4-D.
Four pots of wheat (Triticum aestivum L.) grown in 4 inch square pots were sprayed at 11200 g ae/ha with each of the different forms of 2,4-D. Treatments were applied with a tracksprayer manufactured by Allen Machine Works. The sprayer utilized an 8002E spray nozzle, spray pressure of 262 kPa pressure and speed of 1.5 mph (2.4 km/h) to deliver 187 L/Ha. The nozzle height was 46 cm above the plant canopy. The growth stage of the wheat was 1 to 2 leaf. The wheat plants were allowed to thoroughly dry to ensure that none of the spray solution was present when they were moved into a clean pot flat. A known sensitive species, grapes (Vitis labrusca L.) were placed at the opposite end of the flat. All of the pots were covered with a humidome with small ½ inch (1.27 cm) diameter holes cut into the end where the wheat was placed and a small box fan powered with a battery in the other end to pull air across the treated wheat plants and over the top of grapes. Plants were placed into a growth chamber with the temperature set at 40° C. with a 14 hour day and a 10 hour night cycle. A 24 hour exposure period was used after which the sensitive plants were then removed and placed in the greenhouse and evaluated for injury from vapor exposure to the treatments.

SMILES strings stand for the structures.

Consider `CCN(CC)CC.O=C(O)COc1nc(Cl)c(Cl)cc1Cl` [Triclopyr triethylamine (TEA), Triclopyr triethylamine, reference compound], for which the “% Control Broadleaf Dock Rumex obtusifolia” value in series [1] was found to be 40%. The “% Control Kochia Kochia scoparia” value in the series with Kochia Kochia scoparia stood at 93%.
In the case of `CN(C)Cc1ccccc1.C[C@@H](Oc1ccc(Oc2ccc(C#N)cc2F)cc1)C(=O)O` [Compound 4k], the “% Control Barnyardgrass Echinochloa crus-galli” value in series [2] was 100%. The “% Control Large Crabgrass Digitaria Sanguinalis” value in series [3] is given as 85%.
Consider `CCCCOCCOC(=O)COc1nc(Cl)c(Cl)cc1Cl` [Triclopyr butoxyethylester (BEE), Triclopyr butoxyethylester, reference compound], for which the “% Control Broadleaf Dock Rumex obtusifolia” value in series [1] is listed as 79%. For the same compound, the “% Control Kochia Kochia scoparia” value with Kochia Kochia scoparia is listed as 95%.
Taken in the same sequence, the figures for `CCCCCCCCn1ccnc1.O=C(O)COc1nc(Cl)c(Cl)cc1Cl` [Compound 2c] were 52% and 92%.
Consider `CCCCCCCCCCCCCCCCN(C)C.O=C(O)COc1ccc(Cl)cc1Cl` [Compound 3g], for which the “% Injury to grapes from vapor exposure” value in series [4] came out at 0%.
Take `CCCCCCCCN(C)C.C[C@@H](Oc1ccc(Oc2ccc(C#N)cc2F)cc1)C(=O)O` [Compound 4i]: the “% Control Barnyardgrass Echinochloa crus-galli” value in series [2] is given as 100%. For the same compound, the “% Control Large Crabgrass Digitaria Sanguinalis” value in series [3] is 78%.
For the compound `CC(Oc1ccc(Oc2ccc(C#N)cc2F)cc1)C(=O)O.CCCCCCCCCCCCCCN(C)C` (stereo not shown) [Compound 4j], the “% Control Barnyardgrass Echinochloa crus-galli” value in series [2] was found to be 100%. In series [3], the “% Control Large Crabgrass Digitaria Sanguinalis” value turned out to be 82%.
With `CCCCOCCOC(=O)COc1ccc(Cl)cc1Cl` [2,4-D butoxyethylester (BEE), 2,4-D butoxyethylester, reference compound], in series [1], the “% Control Broadleaf Dock Rumex obtusifolia” value is on record as 96%. In series [4], the “% Injury to grapes from vapor exposure” value came to 100%. For the same compound, in the series on Kochia Kochia scoparia, the “% Control Kochia Kochia scoparia” value came to 95%.
For `CNC.O=C(O)COc1ccc(Cl)cc1Cl` [2,4-D dimethylamine (DMA), 2,4-D dimethylamine, reference compound], the “% Control Broadleaf Dock Rumex obtusifolia” value in series [1] came to 40%. Besides, the “% Injury to grapes from vapor exposure” value in series [4] came out at 78%. Besides, the “% Control Kochia Kochia scoparia” value in the series on Kochia Kochia scoparia was found to be 76%.
On to `CCCCCCCCN(C)C.O=C(O)COc1ccc(Cl)cc1Cl` [Compound 3c], for which, in series [4], the “% Injury to grapes from vapor exposure” value was found to be 0%.
As to `CCCCCCCCn1ccnc1.O=C(O)COc1ccc(Cl)cc1Cl` [Compound 1c], the “% Control Broadleaf Dock Rumex obtusifolia” value in series [1] was 82%. Moreover, in the series with Kochia Kochia scoparia, the “% Control Kochia Kochia scoparia” value stood at 97%.
Taken in the same sequence, the figures for `CCCCCCN(C)C.O=C(O)COc1nc(Cl)c(Cl)cc1Cl` [Compound 4b] were 49% and 96%.
Taken in the same sequence, the figures for `CCCCCCN(C)C.O=C(O)COc1ccc(Cl)cc1Cl` [Compound 3b] were 73% and 97%.
Take `CCCCOC(=O)[C@H](C)Oc1ccc(Oc2ccc(C#N)cc2F)cc1` [cyhalofop Bu-ester, reference compound]: in series [2], the “% Control Barnyardgrass Echinochloa crus-galli” value was 100%. Besides, the “% Control Large Crabgrass Digitaria Sanguinalis” value in series [3] came out at 92%.

(Values after patent US20080207452A1, “Ionic liquids derived from herbicidal carboxylic acids and certain trialkylamines or heteroarylamines” (Dow AgroSciences LLC, priority 2007, published 2008).)
